pIC50: −log10 of the molar value. Where two headings read alike, the source gives them in different places.

By pIC50 is commonly meant the negative decadic logarithm of the IC50, by convention in mol/L. For orientation: half-life means how long it takes for the measured level to halve. High values mean slow loss, low ones fast loss. For orientation: bioavailability means dose-corrected exposure relative to a reference, in per cent.

One data set addresses KLK1 (Homo sapiens (Human), UniProt P06870). The data set can be described thus: Determination of related protease inhibition: KLK1 (fluorogenic substrate at Km). Type of data set: biochemical. The settings on record: 25° C. Summed up: (§1)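 IC50 values derive from the linear rate of fluorescence increase, normalised to uninhibited enzyme as 100% activity. Each human protease was run against its fluorogenic substrate at Km concentration with varying compound levels, with product fluorescence followed over 5 min at 25 °C.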

In another data set the target is Plasma Kallikrein (Homo sapiens (Human), UniProt P03952). Kind of data set: Determination of related protease inhibition: Plasma Kallikrein (fluorogenic substrate at Km). The settings on record: 25° C., read-out: IC50 (human PKal). Type of data set: biochemical. Summed up:
as §1

In a further data set the target is Human Factor XIIa (Homo sapiens (Human), UniProt P00748). Kind of data set: Determination of FXIIa inhibition (fluorogenic substrate H-DPro-Phe-Arg-AFC, IC50 assay). Type of data set: biochemical. The settings on record: substrate H-DPro-Phe-Arg-AFC at Km, 25° C.; class scale A-G. An outline of the steps: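 IC50 derived from % remaining activity, taken as the linear fluorescence rate over a 5 min read at 25° C. Substrate H-DPro-Phe-Arg-AFC was used at its Km (Michaelis-Menten) with human FXIIa and serial compound dilutions, 25° C.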

The target in another data set is FXa (Homo sapiens (Human), UniProt P00742). The data set can be described thus: Determination of related protease inhibition: FXa (fluorogenic substrate at Km). The conditions noted are these: 25° C. Type of data set: biochemical. An outline of the steps:
as §1

For another data set, the target named is Thrombin (Homo sapiens (Human), UniProt P00734). Kind of data set: Determination of related protease inhibition: Thrombin (fluorogenic substrate at Km). The settings on record: 25° C. The data set is classed as biochemical. An outline of the steps: as §1
A short description of data set [1]: Pharmacokinetics following a single intravenous dose and a single oral dose in male Sprague-Dawley rats (oral bioavailability, half-life). The data set is classed as in vivo. The conditions noted are these: rat, plasma, 10% DMSO/10% Cremophor EL/80% SWFI; for bioavailability: read-out: F % (oral bioavailability). Here is the method:
Pharmacokinetic studies of the compounds in Table 16 were performed to assess the pharmacokinetics following a single intravenous dose and a single oral dose in male Sprague-Dawley rats. Two rats were given a single intravenous dose of 1 mL/kg of a nominal 1 mg/mL (1 mg/kg) composition of test compound in 10% DMSO/10% Cremophor EL/80% SWFI vehicle. Example 2191 was dosed at 1 mL/kg of a nominal 2 mg/mL (2 mg/kg) using the same vehicle.
Two rats were given a single oral dose of 5 mL/kg of a nominal 1 mg/mL (5 mg/kg) composition of test compound in 10% DMSO/10% Cremophor EL/80% SWFI vehicle. Example 2191 was dosed at 5 mL/kg of a nominal 2 mg/mL (10 mg/kg) using the same vehicle.
Following intravenous dosing, blood samples were collected over a period of 12 h. Sample times were 2, 5, 15 and 30 min then 1, 2, 4, 6, and 12 h. Following oral dosing, blood samples were collected over a period of 24 h. Sample times were 5, 15 and 30 min then 1, 2, 4, 6, 8, 12 and 24 h.
Following collection, blood samples were centrifuged and the plasma fraction analysed for concentration of test compound by LCMS. Oral bioavailability and half-life calculations from these studies were obtained using Phoenix WinNonlin (v8.0) and are shown below: […]

The next data set addresses Plasmin (Homo sapiens (Human), UniProt P00747). The data set can be described thus: Determination of related protease inhibition: Plasmin (fluorogenic substrate at Km). Type of data set: biochemical. The settings on record: 25° C. The procedure:
(§2) Determination of Related Protease Inhibition
(§3) In vitro inhibition of related proteases was determined using an ([…] assay based on standard literature methods (see e.g. Shori et al., Biochem. Pharmacol., 1992, 43, 1209; Bouckaert et al., European Journal of Medicinal Chemistry 110 (2016) 181). Human serine protease enzymes Plasma Kallikrein, KLK1, FXa, Plasmin, Thrombin and Trypsin were assayed for enzymatic activity using an appropriate fluorogenic substrate at Km concentration, FXIa at fixed substrate concentration of 100 μM, and various concentrations of the test compound. Protease activity was measured by monitoring the accumulation of liberated fluorescence from the substrate over […]. The linear rate of fluorescence increase per minute was expressed as percentage (%) activity. IC50 values were calculated as the concentration of inhibitor giving 50% inhibition of the uninhibited enzyme activity (100%).

The target of the next data set is Trypsin. Kind of data set: Determination of related protease inhibition: Trypsin (fluorogenic substrate at Km). Type of data set: biochemical, human. The settings on record: 25° C. The procedure:
as §2, §3

The target of a further data set is FXIa (Homo sapiens (Human), UniProt P03951). Kind of data set: Determination of related protease inhibition: FXIa (fixed substrate concentration of 100 μM). The data set is classed as biochemical. The conditions noted are these: 25° C. The procedure:
as §2, §3

Sequence of Human Factor XIIa (P00748 373-615): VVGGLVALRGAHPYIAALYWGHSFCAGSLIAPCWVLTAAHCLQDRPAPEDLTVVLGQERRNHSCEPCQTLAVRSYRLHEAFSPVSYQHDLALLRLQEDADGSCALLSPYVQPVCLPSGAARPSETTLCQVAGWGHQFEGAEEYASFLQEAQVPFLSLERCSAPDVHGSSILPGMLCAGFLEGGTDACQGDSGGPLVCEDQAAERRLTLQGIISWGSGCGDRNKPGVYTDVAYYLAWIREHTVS
Sequence of FXIa (P03951 388-625): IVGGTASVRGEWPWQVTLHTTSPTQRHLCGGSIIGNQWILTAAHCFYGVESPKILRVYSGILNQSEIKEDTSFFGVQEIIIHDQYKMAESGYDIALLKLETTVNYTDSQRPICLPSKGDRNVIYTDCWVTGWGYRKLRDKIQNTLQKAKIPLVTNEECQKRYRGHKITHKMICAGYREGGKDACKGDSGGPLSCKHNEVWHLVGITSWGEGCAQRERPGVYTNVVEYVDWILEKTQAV
Sequence of FXIa (P03951 19-387 partner): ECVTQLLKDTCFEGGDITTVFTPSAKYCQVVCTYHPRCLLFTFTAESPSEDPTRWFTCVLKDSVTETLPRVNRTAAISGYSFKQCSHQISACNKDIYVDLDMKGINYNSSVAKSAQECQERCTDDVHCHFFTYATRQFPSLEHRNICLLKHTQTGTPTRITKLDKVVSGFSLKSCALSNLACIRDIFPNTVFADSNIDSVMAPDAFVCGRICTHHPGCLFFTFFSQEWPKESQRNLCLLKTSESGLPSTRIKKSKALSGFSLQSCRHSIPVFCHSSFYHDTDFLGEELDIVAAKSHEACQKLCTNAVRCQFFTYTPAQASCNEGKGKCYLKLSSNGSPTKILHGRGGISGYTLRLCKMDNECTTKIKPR
Sequence of Plasma Kallikrein (P03952 391-638): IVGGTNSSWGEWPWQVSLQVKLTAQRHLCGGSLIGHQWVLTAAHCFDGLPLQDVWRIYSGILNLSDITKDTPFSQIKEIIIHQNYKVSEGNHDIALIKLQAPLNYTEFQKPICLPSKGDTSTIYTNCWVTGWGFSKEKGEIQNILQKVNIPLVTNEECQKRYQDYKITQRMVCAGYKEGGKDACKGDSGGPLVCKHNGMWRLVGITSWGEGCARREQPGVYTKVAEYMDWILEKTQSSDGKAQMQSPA
Sequence of Plasma Kallikrein (P03952 20-390 partner): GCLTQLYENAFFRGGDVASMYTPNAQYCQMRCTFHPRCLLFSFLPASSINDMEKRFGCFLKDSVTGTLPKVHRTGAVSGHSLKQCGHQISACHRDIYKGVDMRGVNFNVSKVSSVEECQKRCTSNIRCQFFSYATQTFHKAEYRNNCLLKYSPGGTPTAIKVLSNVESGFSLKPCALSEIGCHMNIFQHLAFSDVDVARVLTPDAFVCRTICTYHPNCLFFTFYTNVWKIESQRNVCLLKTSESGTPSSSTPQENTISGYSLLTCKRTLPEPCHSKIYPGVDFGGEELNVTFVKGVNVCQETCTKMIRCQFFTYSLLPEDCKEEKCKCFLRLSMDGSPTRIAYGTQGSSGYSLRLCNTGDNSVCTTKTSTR
Sequence of KLK1 (P06870 25-262): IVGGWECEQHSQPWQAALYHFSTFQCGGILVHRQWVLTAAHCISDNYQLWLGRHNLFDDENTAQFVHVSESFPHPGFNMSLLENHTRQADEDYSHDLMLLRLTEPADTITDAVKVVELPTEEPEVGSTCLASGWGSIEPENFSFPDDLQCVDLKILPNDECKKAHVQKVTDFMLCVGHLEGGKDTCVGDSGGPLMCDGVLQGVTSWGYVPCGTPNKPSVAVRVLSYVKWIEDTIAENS
Sequence of FXa (P00742 235-488): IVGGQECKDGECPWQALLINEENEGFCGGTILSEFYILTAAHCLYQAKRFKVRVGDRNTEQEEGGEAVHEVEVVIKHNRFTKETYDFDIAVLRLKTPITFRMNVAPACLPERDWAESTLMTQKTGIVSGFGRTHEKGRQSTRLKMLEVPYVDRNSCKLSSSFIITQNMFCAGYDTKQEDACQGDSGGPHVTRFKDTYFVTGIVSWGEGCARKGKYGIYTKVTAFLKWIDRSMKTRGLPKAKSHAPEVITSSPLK
Sequence of FXa (P00742 41-179 partner): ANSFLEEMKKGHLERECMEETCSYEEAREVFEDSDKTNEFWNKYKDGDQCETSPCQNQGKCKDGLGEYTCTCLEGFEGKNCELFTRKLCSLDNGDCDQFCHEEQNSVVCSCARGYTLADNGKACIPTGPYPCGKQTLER
Sequence of Plasmin (P00747 581-810): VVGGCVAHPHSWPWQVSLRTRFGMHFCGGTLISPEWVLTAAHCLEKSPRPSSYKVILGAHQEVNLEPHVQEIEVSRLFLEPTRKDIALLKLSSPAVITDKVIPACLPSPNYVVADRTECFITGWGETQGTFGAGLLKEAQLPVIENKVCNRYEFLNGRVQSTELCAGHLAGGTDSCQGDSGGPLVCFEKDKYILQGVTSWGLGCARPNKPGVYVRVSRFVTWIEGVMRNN
Sequence of Plasmin (P00747 97-580 partner): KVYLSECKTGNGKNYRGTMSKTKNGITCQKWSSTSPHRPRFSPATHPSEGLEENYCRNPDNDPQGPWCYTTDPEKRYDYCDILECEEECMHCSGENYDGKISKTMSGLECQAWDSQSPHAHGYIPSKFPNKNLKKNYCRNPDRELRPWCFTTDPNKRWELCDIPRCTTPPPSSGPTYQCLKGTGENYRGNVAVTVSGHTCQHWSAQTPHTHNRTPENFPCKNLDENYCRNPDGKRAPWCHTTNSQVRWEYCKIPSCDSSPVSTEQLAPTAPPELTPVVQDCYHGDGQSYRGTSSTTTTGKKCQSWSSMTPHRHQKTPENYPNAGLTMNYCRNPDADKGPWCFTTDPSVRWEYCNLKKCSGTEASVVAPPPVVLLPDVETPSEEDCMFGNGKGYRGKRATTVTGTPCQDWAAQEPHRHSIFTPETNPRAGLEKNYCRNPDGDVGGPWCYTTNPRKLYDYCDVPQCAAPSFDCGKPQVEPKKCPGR

Consider `Nc1nccc2c(NCc3ccc(OCC4CCn5ccnc5C4)nc3)cccc12` (single isomer, unassigned) [Example 1029, (R*)-N5-((6-((5,6,7,8-tetrahydroimidazo[1,2-a]pyridin-7-yl)methoxy)pyridin-3-yl)methyl)isoquinoline-1,5-diamine], for which the pIC50 at KLK1 was 5.00 to 5.52; on Plasma Kallikrein, 4.40 to 5.00; against Human Factor XIIa it was 6.52 to 7.00; on FXa it was 4.40 to 5.00; on Thrombin it was 4.40 to 5.00. For the same compound, the half-life in data set [1] came out at 371 min. For the same compound, the bioavailability in data set [1] stood at 9.7%.
In turn, `Cc1cc(N2CCn3c(nnc3C(F)(F)F)C2C)ncc1CNc1cccc2c(N)nccc12` (single isomer, unassigned) [Example 1305, (S*)-N5-((4-methyl-6-(8-methyl-3-(trifluoromethyl)-5,6-dihydro-[1,2,4]triazolo[4,3-a]pyrazin-7(8H)-yl)pyridin-3-yl)methyl)isoquinoline-1,5-diamine] showed a pIC50 against KLK1 of less than 5.40. Further, at Human Factor XIIa, the pIC50 was 7.00 to 8.00. Besides, in data set [1], the half-life was found to be 242 min and the bioavailability is 79.4%.
With `CN1CCC(Oc2ccc(CNc3ccc4c(N)nccc4c3)cn2)CC1` [Example 1001, 6-N-({6-[(1-methylpiperidin-4-yl)oxy]pyridin-3-yl}methyl)isoquinoline-1,6-diamine], the pIC50 was 5.52 to 6.00 on Plasma Kallikrein; 6.00 to 6.52 at Human Factor XIIa; less than 4.40 against Plasmin; 5.52 to 6.00 at FXa; 4.40 to 5.00 against Trypsin; 5.52 to 6.00 against Thrombin.
For the compound `CN1CCC(Oc2ccc(CNc3cccc4c(N)nccc34)cc2)CC1` [Example 1002, 5-N-({4-[(1-methylpiperidin-4-yl)oxy]phenyl}methyl)isoquinoline-1,5-diamine], the pIC50 on Human Factor XIIa was 6.52 to 7.00; against Plasmin it was less than 4.40; against FXa, 4.40 to 5.00; at Trypsin it was less than 4.40; on Thrombin, less than 4.40.
Take `CN1CCC(CNc2ccc(CNc3ccnc4[nH]c(Cl)cc34)cn2)CC1` [Example 1243, 2-chloro-N-((6-(((1-methylpiperidin-4-yl)methyl)amino)pyridin-3-yl)methyl)-1H-pyrrolo [2,3-b]pyridin-4-amine]: the pIC50 was 4.40 to 5.00 against KLK1; less than 4.40 at Plasma Kallikrein; 7.00 to 8.00 on Human Factor XIIa; 4.40 to 5.00 against FXa; less than 4.40 against Thrombin. Besides, the half-life in data set [1] was found to be 526 min. The bioavailability in [1] worked out at 4.9%.
`Nc1nccc2c(NCc3ccc(N4CCn5c(nnc5C(F)F)C4)nc3)cccc12` [Example 1274, N5-((6-(3-(Difluoromethyl)-5,6-dihydro-[1,2,4]triazolo[4,3-a]pyrazin-7(8H)-yl)pyridin-3-yl)methyl)isoquinoline-1,5-diamine]: the pIC50 against KLK1 was 5.52 to 6.00; at Plasma Kallikrein, less than 4.40; on Human Factor XIIa it was 6.00 to 6.52; at FXa it was less than 4.40; against Thrombin, 4.40 to 5.00. This compound also showed a half-life in data set [1] of 151 min. Besides, in data set [1], the bioavailability stood at 32.1%.
Take `FC(F)c1nnc2n1CCN(c1ccc(CNc3ccnc4[nH]c(Cl)cc34)cn1)C2` [Example 1277, 2-chloro-N-((6-(3-(difluoromethyl)-5,6-dihydro-[1,2,4]triazolo[4,3-a]pyrazin-7(8H)-yl)pyridin-3-yl)methyl)-1H-pyrrolo[2,3-b]pyridin-4-amine]: the pIC50 on KLK1 was 4.40 to 5.00; at Plasma Kallikrein it was less than 4.40; on Human Factor XIIa, 6.00 to 6.52; at FXa, less than 4.40; on Thrombin, 4.40 to 5.00. This compound also returned a half-life in data set [1] of 81 min. The bioavailability in data set [1] turned out to be 25%.
In the case of `Cc1cc(N2CCn3c(nnc3C(F)(F)F)C2)ncc1CNc1cccc2c(N)nccc12` [Example 1282, N5-((4-Methyl-6-(3-(trifluoromethyl)-5,6-dihydro-[1,2,4]triazolo[4,3-a]pyrazin-7(8H)-yl)pyridin-3-yl)methyl)isoquinoline-1,5-diamine], the pIC50 at KLK1 is 5.00 to 5.52; at Plasma Kallikrein, less than 4.40; at Human Factor XIIa it was 7.00 to 8.00; against FXa, less than 5.40. The compound also showed a half-life in [1] of 141 min. Besides, the bioavailability in [1] is 53.2%.
As to `CN1CCC(OCc2ccc(CNc3cccc4c(N)nccc34)cc2)CC1` [Example 2186, N5-(4-(((1-methylpiperidin-4-yl)oxy)methyl)benzyl)isoquinoline-1,5-diamine], the pIC50 at Plasma Kallikrein is 4.40 to 5.00; at Human Factor XIIa it was 6.52 to 7.00; at FXIa, less than 4.40; against FXa, 4.40 to 5.00; at Thrombin it was less than 4.40. The half-life in data set [1] was determined as 263 min. For the same compound, the bioavailability in data set [1] was found to be 15.8%.
For the compound `CN1CCC(OCc2ccc(CNc3ccc4c(N)nccc4c3)c(F)c2)CC1` [Example 2191, N6-(2-fluoro-4-(((1-methylpiperidin-4-yl)oxy)methyl)benzyl)isoquinoline-1,6-diamine], the pIC50 at Plasma Kallikrein was 4.40 to 5.00; against Human Factor XIIa, 6.52 to 7.00; at FXIa it was less than 4.40; against FXa, 4.40 to 5.00; against Thrombin, less than 4.40. The compound further yielded a half-life in [1] of 541 min. Further, the bioavailability in [1] was 22.8%.
Take `CN1CCC(OCc2ccc(CNc3cccc4c(N)nccc34)c(F)c2)CC1` [Example 2197, N5-(2-fluoro-4-(((1-methylpiperidin-4-yl)oxy)methyl)benzyl)isoquinoline-1,5-diamine]: the pIC50 at Plasma Kallikrein was less than 4.70; against Human Factor XIIa, 7.00 to 8.00; against FXIa, less than 4.70; against FXa it was less than 4.70; against Thrombin, less than 4.70. The bioavailability in data set [1] (5 mg/kg) was 26.6%. In [1], this compound had a half-life of 412 min.
`CN1CCC(Oc2cc(CNc3ccc4c(N)nccc4c3)ccn2)CC1` [Example 4259, N6-((2-((1-methylpiperidin-4-yl)oxy)pyridin-4-yl)methyl)isoquinoline-1,6-diamine]: the pIC50 at KLK1 was 4.40 to 5.00; on Plasma Kallikrein, 4.40 to 5.00; at Human Factor XIIa, 6.00 to 6.52; against Plasmin, less than 4.40; on FXa, 5.00 to 5.52; against Thrombin it was 5.52 to 6.00.
For `CN1CCC(COc2cc(CNc3cccc4c(N)nccc34)ccn2)CC1` [Example 4260, N5-((2-((1-methylpiperidin-4-yl)methoxy)pyridin-4-yl)methyl)isoquinoline-1,5-diamine], the pIC50 on Plasma Kallikrein is less than 4.70; against Human Factor XIIa, 6.52 to 7.00; against FXIa it was less than 4.70; against FXa it was less than 4.70; against Thrombin it was less than 4.70. In addition, in [1], the half-life is 599 min. Further, the bioavailability in data set [1] was found to be 13.6%.
Regarding `CC(C)N1CCC(COc2cc(CNc3cccc4c(N)nccc34)ccn2)CC1` [Example 4299, N5-[[2-[(1-isopropyl-4-piperidyl)methoxy]-4-pyridyl]methyl]isoquinoline-1,5-diamine], the pIC50 on Plasma Kallikrein was less than 5.40. On Human Factor XIIa, the negative logarithm of the IC50 (pIC50) is 6.52 to 7.00. Also, in [1], the half-life is 604 min and the bioavailability was 8.3%.
The corresponding values for `Cn1ccc(COc2cc(CNc3cccc4c(N)nccc34)ccn2)cc1=O` [Example 4301, 4-[[4-[[(1-Amino-5-isoquinolyl)amino]methyl]-2-pyridyl]oxymethyl]-1-methyl-pyridin-2-one] are less than 5.40, 6.00 to 6.52, 131 min and 8.5%.

Source of the values: patent publication US20240059691A1 (KALVISTA PHARMACEUTICALS LIMITED, priority 2020, published 2024).
